According to US20240398813A1, “PHARMACEUTICAL COMPOSITION FOR PREVENTING OR TREATING OVERACTIVE BLADDER” (GWANGJU INSTITUTE OF SCIENCE AND TECHNOLOGY, priority 2021, published 2024):

Assays:
[1] = system: Spontaneously hypertensive rats (SHR); test: In vivo model of OAB: urination in spontaneously hypertensive rats after oral administration; set-up: species or system rat
Protocol: Male rats with body weights of 300 to 350 g were deprived of food and water overnight before the experiment, and then were randomly divided into a drug administration group and a control group. All animals were provided free access to water for 2 hours, and then 10 mL/kg of vehicle solution [DMSO:PEG400:distilled water=5:40:55 (v/v)] as a test substance were orally administered. After oral administration of the test substance, the rats were placed in a metabolic cage and the number of urinations and urine volume were measured for 3 hours.
The in vivo treatment effects of the compounds for […] were investigated in spontaneously hypertensive rats (SHR) with OAB symptoms after oral administration. Wistar-Kyoto rats (WKY) were used as the healthy animal control, and urination frequency was increased more than 2.8 times in SHR compared to WKY. Compound 208 reduced the urination frequency in SHR (50 mg/kg) by 33%, which is quite close to the urination frequency of the normal group (see FIG. 18).

[2] = target: T1, hyperactive mutant BKCa channels (hSlo G803D/N806K) stably expressed in AD 293 cells (Homo sapiens, UniProt Q12791, G856D/N859K); test: Cell-based fluorescence assay (FluxOR Potassium Ion Channel Assay) of BKCa channel activation
T1 construct: expressed in transfected cells
Protocol: AD 293 cells, which are derivatives of the commonly used HEK 293 cell line and stably express hyperactive mutant BKCa channels (hSlo G803D/N806K) to sensitively detect the effect (Lee et al., 2013), were cultured in Dulbecco' modified Eagle medium (Hyclone, Logan, Utah, […]) supplemented with 10% fetal bovine serum, and selected with 1 mg/mL Geneticin (Gibco, Amarillo, TX, USA). 20,000 cells per well were seeded on a 96-well clear-bottom black plate (Corning, New York, NY, USA) coated with poly-D-lysine (Gibco). BKCa channel activity was measured using the cell-based fluorescence assay, FluxOR Potassium Ion Channel Assay (Thermo Fisher Scientific, Waltham, MA, USA). Experimental procedures were performed according to the manufacturer's instructions. The cells were treated with test compounds dissolved in assay buffer for 15 minutes. Fluorescence was measured using a FlexStation3 multimode microplate reader (Molecular Devices, Silicon Valley, CA, USA) and SoftMax Pro (Molecular Devices). Excitation and emission wavelengths were set to 485 nm and 528 nm, respectively. Fluorescence signals were acquired every 2 seconds for 120 seconds and normalized by the relative fluorescence unit (RFU). The efficacy of a channel activator was determined by analyzing changes (ΔRFU) in the RFU for 80 seconds after channel stimulation.
Activation effects of the synthesized compounds on BKCa channels were evaluated using cell-based fluorescence assay. NS11021 was used as the positive control. The effects were determined based on the initial rate (vi) of channel activation and the apparent EC50 value obtained from fitting data of the dose-response curve. Here, Vi means change values for 4 seconds at the start of channel opening (vi={RFU(t=24 s)−RFU(t=20 s)}/4 s). […]

[3] = target: T1, hyperactive mutant BKCa channels (hSlo G803D/N806K) stably expressed in AD 293 cells; test: as above; conditions: compounds at 5 μM; n=3; vehicle 0.26

T1 sequence (Q12791 whole entry G856D/N859K): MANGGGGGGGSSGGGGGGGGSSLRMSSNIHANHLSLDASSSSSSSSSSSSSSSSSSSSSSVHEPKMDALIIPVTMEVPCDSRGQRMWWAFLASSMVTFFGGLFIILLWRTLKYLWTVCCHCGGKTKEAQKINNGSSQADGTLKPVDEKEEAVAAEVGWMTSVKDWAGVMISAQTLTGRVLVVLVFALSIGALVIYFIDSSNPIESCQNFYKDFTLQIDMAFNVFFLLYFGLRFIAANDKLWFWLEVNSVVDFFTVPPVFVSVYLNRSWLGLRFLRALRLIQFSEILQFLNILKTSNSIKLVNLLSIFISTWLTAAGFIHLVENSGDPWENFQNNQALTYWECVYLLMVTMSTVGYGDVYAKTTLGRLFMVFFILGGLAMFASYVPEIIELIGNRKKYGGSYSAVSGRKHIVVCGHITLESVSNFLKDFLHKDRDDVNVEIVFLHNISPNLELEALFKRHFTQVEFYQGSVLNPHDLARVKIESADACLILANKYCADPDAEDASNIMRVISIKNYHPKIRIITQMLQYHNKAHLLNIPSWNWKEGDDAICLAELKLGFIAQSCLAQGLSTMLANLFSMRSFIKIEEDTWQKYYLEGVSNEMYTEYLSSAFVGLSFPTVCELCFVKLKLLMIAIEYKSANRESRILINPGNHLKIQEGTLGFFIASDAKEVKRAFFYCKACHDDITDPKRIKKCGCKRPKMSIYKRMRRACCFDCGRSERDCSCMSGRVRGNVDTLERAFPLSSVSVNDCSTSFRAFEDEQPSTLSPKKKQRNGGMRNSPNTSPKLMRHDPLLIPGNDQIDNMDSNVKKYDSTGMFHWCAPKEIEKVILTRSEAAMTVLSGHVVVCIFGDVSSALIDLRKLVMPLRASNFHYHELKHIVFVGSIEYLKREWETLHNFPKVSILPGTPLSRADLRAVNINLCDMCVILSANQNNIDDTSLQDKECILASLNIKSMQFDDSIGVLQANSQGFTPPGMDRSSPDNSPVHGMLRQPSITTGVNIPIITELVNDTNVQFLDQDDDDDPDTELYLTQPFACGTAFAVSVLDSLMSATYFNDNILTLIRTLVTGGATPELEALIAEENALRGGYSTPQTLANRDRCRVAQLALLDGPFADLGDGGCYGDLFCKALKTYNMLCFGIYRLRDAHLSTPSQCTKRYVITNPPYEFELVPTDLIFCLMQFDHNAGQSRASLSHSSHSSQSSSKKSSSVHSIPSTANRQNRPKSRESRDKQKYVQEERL

Row | Structure (SMILES) | Activity (ΔRFU normalized by activities of LDD175) [3] | further results
1 | O=C(Nc1cccc(C(F)(F)F)c1)c1sc(=S)n2c1[nH]c(=O)c1cc(Br)ccc12 [Compound 208, 7-bromo-5-oxo-1-thioxo-N-(3-(trifluoromethyl)phenyl)-4,5-dihydro-1H-thiazolo[3,4-a]quinazoline-3-carboxamide] | – | reduction of urination frequency ([1]; 50 mg/kg oral): 33%; EC50 ([2]; fit of dose-response curve of initial rates, read-out: Apparent EC50 based on vi): 2890 nM
2 | O=C(O)c1ccc(Cl)c2c1[nH]c1c3ccc(C(F)(F)F)cc3oc12 [LDD175, reference compound] | 1.00 | activation effect on the BKCa channels at a single concentration ([2]; 3 μM): significant activation effects
3 | O=C(Nc1ccc(Br)cc1F)c1sc(=S)n2c1[nH]c(=O)c1ccc(Cl)cc12 [TTQC-26, N-(4-bromo-2-fluorophenyl)-8-chloro-5-oxo-1-thioxo-4,5-dihydro-1H-thiazolo[3,4-a]quinazoline-3-carboxamide] | 0.49 | –
4 | O=C(NCC1CCCO1)c1sc(=S)n2c1[nH]c(=O)c1cc(Cl)ccc12 (centres unmarked) [TTQC-27, 7-chloro-5-oxo-N-((tetrahydrofuran-2-yl)methyl)-1-thioxo-4,5-dihydro-1H-thiazolo[3,4-a]quinazoline-3-carboxamide] | 0.47 | –
5 | CCOc1ccccc1NC(=O)c1sc(=S)n2c1[nH]c(=O)c1cc(Cl)ccc12 [TTQC-28, 7-chloro-N-(2-ethoxyphenyl)-5-oxo-1-thioxo-4,5-dihydro-1H-thiazolo[3,4-a]quinazoline-3-carboxamide] | 0.45 | –
6 | COc1cccc(CNC(=O)c2sc(=S)n3c2[nH]c(=O)c2ccc(Cl)cc23)c1 [TTQC-29, 8-chloro-N-(3-methoxybenzyl)-5-oxo-1-thioxo-4,5-dihydro-1H-thiazolo[3,4-a]quinazoline-3-carboxamide] | 0.45 | –
7 | O=C(c1sc(=S)n2c1[nH]c(=O)c1cc(Br)ccc12)N1CCCCC1 [TTQC-30, 7-bromo-3-(piperidine-1-carbonyl)-1-thioxo-1H-thiazolo[3,4-a]quinazolin-5(4H)-one] | 0.37 | –
8 | Cc1ccc(NC(=O)c2sc(=S)n3c2[nH]c(=O)c2cc(C)ccc23)c(C)c1 [TTQC-31, N-(2,4-dimethylphenyl)-7-methyl-5-oxo-1-thioxo-4,5-dihydro-1H-thiazolo[3,4-a]quinazoline-3-carboxamide] | 0.34 | –
9 | CCc1ccc(NC(=O)c2sc(=S)n3c2[nH]c(=O)c2cc(Br)ccc23)cc1 [TTQC-32, 7-bromo-N-(4-ethylphenyl)-5-oxo-1-thioxo-4,5-dihydro-1H-thiazolo[3,4-a]quinazoline-3-carboxamide] | 0.34 | –
10 | COc1ccc(CNC(=O)c2sc(=S)n3c2[nH]c(=O)c2ccc(Cl)cc23)cc1 [TTQC-33, 8-chloro-N-(4-methoxybenzyl)-5-oxo-1-thioxo-4,5-dihydro-1H-thiazolo[3,4-a]quinazoline-3-carboxamide] | 0.34 | –
11 | COc1ccc(OC)c(NC(=O)c2sc(=S)n3c2[nH]c(=O)c2ccc(Cl)cc23)c1 [TTQC-34, 8-chloro-N-(2,5-dimethoxyphenyl)-5-oxo-1-thioxo-4,5-dihydro-1H-thiazolo[3,4-a]quinazoline-3-carboxamide] | 0.31 | –
12 | O=C(O[C@H]1CN2CCC1CC2)N1CCc2ccccc2[C@@H]1c1ccccc1 [solifenacin succinate, reference compound] | – | number of urinations ([1]; 5 mg/kg oral, 3 hours, SHR vehicle 8.2): 4.2
